Patent US20230073777A1, “CYCLIC-AMP RESPONSE ELEMENT BINDING PROTEIN (CBP) AND/OR ADENOVIRAL E1A BINDING PROTEIN OF 300 KDA (P300) DEGRADATION COMPOUNDS AND METHODS OF USE” (CULLGEN (SHANGHAI), INC., priority 2019, published 2023)
Read-outs that look alike come from different tables or passages of the source.

Experiments:
P300 = P300 (Homo sapiens, UniProt Q09472); experiment: Immunoblotting of P300 protein levels in LNCaP or 22RV1 cells; type: cell-based; parameters: LNCaP or 22RV1 cells that express CBP/P300 proteins were treated with GNE-781 or the bivalent compounds; endogenous in cells; host or cells: LNCaP (clone FGC) or 22RV1 cells; settings: read-out: Degradation (10 nM)
P300, sequence (Q09472 whole entry): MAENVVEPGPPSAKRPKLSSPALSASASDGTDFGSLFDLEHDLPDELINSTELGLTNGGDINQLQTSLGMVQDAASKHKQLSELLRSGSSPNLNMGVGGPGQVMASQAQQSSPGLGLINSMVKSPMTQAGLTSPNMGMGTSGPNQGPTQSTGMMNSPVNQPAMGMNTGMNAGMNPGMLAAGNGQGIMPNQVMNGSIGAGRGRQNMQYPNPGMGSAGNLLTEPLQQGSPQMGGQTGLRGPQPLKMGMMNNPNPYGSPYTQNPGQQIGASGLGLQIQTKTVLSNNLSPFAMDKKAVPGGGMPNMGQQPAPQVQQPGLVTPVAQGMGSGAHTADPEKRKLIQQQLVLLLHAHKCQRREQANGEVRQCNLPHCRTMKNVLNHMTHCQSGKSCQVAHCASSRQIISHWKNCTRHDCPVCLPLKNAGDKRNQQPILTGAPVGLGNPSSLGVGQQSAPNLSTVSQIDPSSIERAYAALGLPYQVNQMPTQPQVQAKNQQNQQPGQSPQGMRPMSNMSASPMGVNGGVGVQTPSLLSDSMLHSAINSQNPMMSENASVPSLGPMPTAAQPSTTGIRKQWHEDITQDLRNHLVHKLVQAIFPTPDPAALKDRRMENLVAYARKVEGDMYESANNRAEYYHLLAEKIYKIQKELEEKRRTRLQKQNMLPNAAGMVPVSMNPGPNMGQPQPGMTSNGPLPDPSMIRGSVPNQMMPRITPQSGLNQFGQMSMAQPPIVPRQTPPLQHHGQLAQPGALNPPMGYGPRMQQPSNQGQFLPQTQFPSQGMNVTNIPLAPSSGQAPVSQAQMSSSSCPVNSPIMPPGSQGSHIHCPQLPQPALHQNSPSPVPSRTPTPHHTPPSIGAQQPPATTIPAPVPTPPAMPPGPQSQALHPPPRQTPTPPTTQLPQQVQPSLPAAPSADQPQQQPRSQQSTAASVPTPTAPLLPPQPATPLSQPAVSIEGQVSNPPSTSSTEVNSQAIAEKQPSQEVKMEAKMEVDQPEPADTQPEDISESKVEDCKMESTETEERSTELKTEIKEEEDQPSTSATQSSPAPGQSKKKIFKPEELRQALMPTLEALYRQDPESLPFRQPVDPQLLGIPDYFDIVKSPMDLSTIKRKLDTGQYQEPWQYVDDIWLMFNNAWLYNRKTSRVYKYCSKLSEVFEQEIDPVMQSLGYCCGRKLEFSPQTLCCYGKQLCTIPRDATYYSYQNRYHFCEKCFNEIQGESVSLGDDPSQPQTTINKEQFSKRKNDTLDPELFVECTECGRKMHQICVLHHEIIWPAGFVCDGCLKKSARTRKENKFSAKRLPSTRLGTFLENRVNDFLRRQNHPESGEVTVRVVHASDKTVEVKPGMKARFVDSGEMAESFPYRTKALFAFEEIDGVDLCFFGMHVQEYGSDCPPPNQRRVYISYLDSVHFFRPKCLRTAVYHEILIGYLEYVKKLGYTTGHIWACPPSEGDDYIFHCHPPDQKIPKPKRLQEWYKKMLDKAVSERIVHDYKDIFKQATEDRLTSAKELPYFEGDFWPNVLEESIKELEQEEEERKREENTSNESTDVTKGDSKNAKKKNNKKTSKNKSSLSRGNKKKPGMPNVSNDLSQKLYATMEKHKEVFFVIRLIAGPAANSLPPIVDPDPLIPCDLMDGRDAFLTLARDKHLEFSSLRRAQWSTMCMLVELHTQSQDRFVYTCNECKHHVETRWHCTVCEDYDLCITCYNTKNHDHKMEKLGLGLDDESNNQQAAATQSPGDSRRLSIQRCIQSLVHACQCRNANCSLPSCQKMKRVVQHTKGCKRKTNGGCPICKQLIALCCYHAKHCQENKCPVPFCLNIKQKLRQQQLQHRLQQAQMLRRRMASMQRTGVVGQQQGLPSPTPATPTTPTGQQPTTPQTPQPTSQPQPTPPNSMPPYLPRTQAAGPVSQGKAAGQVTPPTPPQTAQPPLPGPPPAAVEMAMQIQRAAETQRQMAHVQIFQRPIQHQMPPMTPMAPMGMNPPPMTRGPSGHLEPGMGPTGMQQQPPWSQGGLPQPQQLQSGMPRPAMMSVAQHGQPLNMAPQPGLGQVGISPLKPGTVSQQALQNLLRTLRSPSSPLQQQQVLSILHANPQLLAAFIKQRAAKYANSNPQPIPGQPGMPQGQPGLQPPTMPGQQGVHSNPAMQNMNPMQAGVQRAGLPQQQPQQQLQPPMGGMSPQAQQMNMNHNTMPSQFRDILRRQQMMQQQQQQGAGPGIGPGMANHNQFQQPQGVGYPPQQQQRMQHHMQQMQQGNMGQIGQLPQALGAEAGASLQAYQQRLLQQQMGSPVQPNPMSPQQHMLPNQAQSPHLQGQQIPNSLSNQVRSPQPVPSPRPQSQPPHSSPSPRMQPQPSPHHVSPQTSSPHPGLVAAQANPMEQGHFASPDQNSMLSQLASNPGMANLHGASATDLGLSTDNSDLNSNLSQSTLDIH
In short: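 P300/CBP levels quantified by chemiluminescent immunoblot band densitometry, normalized against tubulin or vinculin loading controls. Lysates came from LNCaP or 22RV1 cells exposed to compounds or DMSO vehicle for indicated times.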

LNCaP cells = experiment: LNCaP cell viability assay (CellTiter-Glo); type: cell-based; settings: Homo sapiens, 72 h, LNCaP prostate cancer cell viability inhibition, 3 days
In short: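 Three-day treatment of LNCaP cells (5000 per well) across a 12-point, 3-fold dilution series starting at 10 μM. ATP luminescence (CellTiter-Glo) relative to untreated controls gave dose-response curves fitted nonlinearly for IC50.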

[1] = percentage of inhibition of p300 at 10 nM (Table 3)
[2] = percentage of inhibition of p300 at 10 nM (Table 2)

| SMILES | inhibition at 0.01 µM (P300; [1]) | IC50 (LNCaP cells; CellTiter-Glo (Table 3)) | inhibition at 0.01 µM (P300; [2]) | IC50 (LNCaP cells; CellTiter-Glo (Table 2)) |
| --- | --- | --- | --- | --- |
| CNC(=O)N1CCc2c(c(N3CCCc4cc(-c5cnn(CC(=O)NCCOCCOCCC(=O)N[C@H](C(=O)N6C[C@H](O)C[C@H]6C(=O)NCc6ccc(-c7scnc7C)cc6)C(C)(C)C)c5)c(C(F)F)cc43)nn2C2CCOCC2)C1 [P-075, 3-(7-(Difluoromethyl)-6-(1-((S)-14-((2S,4R)-4-hydroxy-2-((4-(4-methylthiazol-5-yl)benzyl)carbamoyl)pyrrolidine-1-carbonyl)-15,15-dimethyl-2,12-dioxo-6,9-dioxa-3,13-diazahexadecyl)-1H-pyrazol-4-yl)-3,4-dihydroquinolin-1(2H)-yl)-N-methyl-1-(tetrahydro-2H-pyran-4-yl)-1,4,6,7-tetrahydro-5H-pyrazolo[4,3-c]pyridine-5-carboxamide] | < 20% | > 10000 nM | – | – |
| CNC(=O)N1CCc2c(c(N3CCCc4cc(-c5cnn(C)c5)c(C(F)F)cc43)nn2C2CCN(C(=O)CCOCCNc3ccc4c(c3)C(=O)N(C3CCC(=O)NC3=O)C4=O)CC2)C1 (stereo not shown) [P-008, 3-(7-(Difluoromethyl)-6-(1-methyl-1H-pyrazol-4-yl)-3,4-dihydroquinolin-1(2H)-yl)-1-(1-(3-(2-((2-(2,6-dioxopiperidin-3-yl)-1,3-dioxoisoindolin-5-yl)amino)ethoxy)propanoyl)piperidin-4-yl)-N-methyl-1,4,6,7-tetrahydro-5H-pyrazolo[4,3-c]pyridine-5-carboxamide] | – | – | 20 to 50% | > 10000 nM |
| CNC(=O)N1CCc2c(c(N3CCCc4cc(-c5cnn(C)c5)c(C(F)F)cc43)nn2C2CCN(C(=O)CCCCCCNc3cccc4c3C(=O)N(C3CCC(=O)NC3=O)C4=O)CC2)C1 (stereo not shown) [P-035, 3-(7-(difluoromethyl)-6-(1-methyl-1H-pyrazol-4-yl)-3,4-dihydroquinolin-1(2H)-yl)-1-(1-(7-((2-(2,6-dioxopiperidin-3-yl)-1,3-dioxoisoindolin-4-yl)amino)heptanoyl)piperidin-4-yl)-N-methyl-1,4,6,7-tetrahydro-5H-pyrazolo[4,3-c]pyridine-5-carboxamide] | – | – | > 80% | 0.7 nM |
| CNC(=O)N1CCc2c(c(N3CCCc4cc(-c5cnn(C)c5)c(C(F)F)cc43)nn2C2CCN(C(=O)CCOCCOCCOCCOCCOCCNc3ccc4c(c3)C(=O)N(C3CCC(=O)NC3=O)C4=O)CC2)C1 (stereo not shown) [P-012, 3-(7-(Difluoromethyl)-6-(1-methyl-1H-pyrazol-4-yl)-3,4-dihydroquinolin-1(2H)-yl)-1-(1-(1-((2-(2,6-dioxopiperidin-3-yl)-1,3-dioxoisoindolin-5-yl)amino)-3,6,9,12,15-pentaoxaoctadecan-18-oyl)piperidin-4-yl)-N-methyl-1,4,6,7-tetrahydro-5H-pyrazolo[4,3-c]pyridine-5-carboxamide] | – | – | < 20% | 197 nM |
| CNC(=O)N1CCc2c(c(N3CCCc4cc(-c5cnn(CC(=O)NCCCCCCNc6cccc7c6C(=O)N(C6CCC(=O)NC6=O)C7=O)c5)c(C(F)F)cc43)nn2C2CCOCC2)C1 (stereo not shown) [P-041, 3-(7-(difluoromethyl)-6-(1-(2-((6-((2-(2,6-dioxopiperidin-3-yl)-1,3-dioxoisoindolin-4-yl)amino)hexyl)amino)-2-oxoethyl)-1H-pyrazol-4-yl)-3,4-dihydroquinolin-1(2H)-yl)-N-methyl-1-(tetrahydro-2H-pyran-4-yl)-1,4,6,7-tetrahydro-5H-pyrazolo[4,3-c]pyridine-5-carboxamide] | – | – | 20 to 50% | 10.6 nM |
| CNC(=O)N1CCc2c(c(N3CCCc4cc(-c5cnn(C)c5)c(C(F)F)cc43)nn2C2CCN(C(=O)CCOCCOCCOCCNc3cccc4c3C(=O)N(C3CCC(=O)NC3=O)C4=O)CC2)C1 (stereo not shown) [P-053, 3-(7-(Difluoromethyl)-6-(1-methyl-1H-pyrazol-4-yl)-3,4-dihydroquinolin-1(2H)-yl)-1-(1-(3-(2-(2-(2-((2-(2,6-dioxopiperidin-3-yl)-1,3-dioxoisoindolin-4-yl)amino)ethoxy)ethoxy)ethoxy)propanoyl)piperidin-4-yl)-N-methyl-1,4,6,7-tetrahydro-5H-pyrazolo[4,3-c]pyridine-5-carboxamide] | 20 to 50% | 76.5 nM | – | – |
| CNC(=O)N1CCc2c(c(N3CCCc4cc(-c5cnn(C)c5)c(C(F)F)cc43)nn2C2CCN(C(=O)CCCC(=O)N[C@H](C(=O)N3C[C@H](O)C[C@H]3C(=O)NCc3ccc(-c4scnc4C)cc3)C(C)(C)C)CC2)C1 [P-057, 3-(7-(Difluoromethyl)-6-(1-methyl-1H-pyrazol-4-yl)-3,4-dihydroquinolin-1(2H)-yl)-1-(1-(5-(((S)-1-((2S,4R)-4-hydroxy-2-((4-(4-methylthiazol-5-yl)benzyl)carbamoyl)pyrrolidin-1-yl)-3,3-dimethyl-1-oxobutan-2-yl)amino)-5-oxopentanoyl)piperidin-4-yl)-N-methyl-1,4,6,7-tetrahydro-5H-pyrazolo[4,3-c]pyridine-5-carboxamide] | < 20% | 76.6 nM | – | – |

The remaining lines, values ahead:

| inhibition at 0.01 µM (P300; [1]) | IC50 (LNCaP cells; CellTiter-Glo (Table 3)) | inhibition at 0.01 µM (P300; [2]) | IC50 (LNCaP cells; CellTiter-Glo (Table 2)) | SMILES |
| --- | --- | --- | --- | --- |
| > 80% | 7.5 nM | – | – | CC(=O)N1CCc2c(c(N3CCCc4cc(-c5cnn(C)c5)c(C(F)F)cc43)nn2C2CCN(C(=O)CCCCCNc3cccc4nnn(C5CCC(=O)NC5=O)c(=O)c34)CC2)C1 (stereo not shown) [P-151, 3-(5-((6-(4-(5-acetyl-3-(7-(difluoromethyl)-6-(1-methyl-1H-pyrazol-4-yl)-3,4-dihydroquinolin-1(2H)-yl)-4,5,6,7-tetrahydro-1H-pyrazolo[4,3-c]pyridin-1-yl)piperidin-1-yl)-6-oxohexyl)amino)-4-oxobenzo[d][1,2,3]triazin-3(4H)-yl)piperidine-2,6-dione] |
| 50 to 80% | 156 nM | – | – | CC(=O)N1CCc2c(c(N3CCCc4cc(-c5cnn(C)c5)c(C(F)F)cc43)nn2C2CCN(C(=O)CN3CCOC(CNc4cccc5c4C(=O)N(C4CCC(=O)NC4=O)C5=O)C3)CC2)C1 (stereo not shown) [P-141, 4-(((4-(2-(4-(5-Acetyl-3-(7-(difluoromethyl)-6-(1-methyl-1H-pyrazol-4-yl)-3,4-dihydroquinolin-1(2H)-yl)-4,5,6,7-tetrahydro-1H-pyrazolo[4,3-c]pyridin-1-yl)piperidin-1-yl)-2-oxoethyl)morpholin-2-yl)methyl)amino)-2-(2,6-dioxopiperidin-3-yl)isoindoline-1,3-dione] |
| > 80% | 0.3 nM | – | – | CC(=O)N1CCc2c(c(N3CCCc4cc(-c5cnn(C)c5)c(C(F)F)cc43)nn2C2CCN(C(=O)CCCCCCCCNc3ccc4c(c3)n(C)c(=O)n4C3CCC(=O)NC3=O)CC2)C1 (stereo not shown) [P-162, 3-(5-((9-(4-(5-acetyl-3-(7-(difluoromethyl)-6-(1-methyl-1H-pyrazol-4-yl)-3,4-dihydroquinolin-1(2H)-yl)-4,5,6,7-tetrahydro-1H-pyrazolo[4,3-c]pyridin-1-yl)piperidin-1-yl)-9-oxononyl)amino)-3-methyl-2-oxo-2,3-dihydro-1H-benzo[d]imidazol-1-yl)piperidine-2,6-dione] |
| < 20% | > 10000 nM | – | – | CNC(=O)N1CCc2c(c(N3CCCc4cc(-c5cnn(CC(=O)NCCOCCOCCOCCOCCC(=O)N[C@H](C(=O)N6C[C@H](O)C[C@H]6C(=O)NCc6ccc(-c7scnc7C)cc6)C(C)(C)C)c5)c(C(F)F)cc43)nn2C2CCOCC2)C1 [P-078, 3-(7-(Difluoromethyl)-6-(1-((S)-20-((2S,4R)-4-hydroxy-2-((4-(4-methylthiazol-5-yl)benzyl)carbamoyl)pyrrolidine-1-carbonyl)-21,21-dimethyl-2,18-dioxo-6,9,12,15-tetraoxa-3,19-diazadocosyl)-1H-pyrazol-4-yl)-3,4-dihydroquinolin-1(2H)-yl)-N-methyl-1-(tetrahydro-2H-pyran-4-yl)-1,4,6,7-tetrahydro-5H-pyrazolo[4,3-c]pyridine-5-carboxamide] |
| 50 to 80% | 16.5 nM | – | – | CC(=O)N1CCc2c(c(N3CCCc4cc(-c5cnn(C)c5)c(C(F)F)cc43)nn2C2CCN(C(=O)CCCCCCn3c(=O)n(C4CCC(=O)NC4=O)c4ccccc43)CC2)C1 (stereo not shown) [P-108, 3-(3-(7-(4-(5-Acetyl-3-(7-(difluoromethyl)-6-(1-methyl-1H-pyrazol-4-yl)-3,4-dihydroquinolin-1(2H)-yl)-4,5,6,7-tetrahydro-1H-pyrazolo[4,3-c]pyridin-1-yl)piperidin-1-yl)-7-oxoheptyl)-2-oxo-2,3-dihydro-1H-benzo[d]imidazol-1-yl)piperidine-2,6-dione] |
| 50 to 80% | 22.3 nM | – | – | CC(=O)N1CCc2c(c(N3CCCc4cc(-c5cnn(C)c5)c(C(F)F)cc43)nn2C2CCN(C(=O)CCCCNc3cccc4nnn(C5CCC(=O)NC5=O)c(=O)c34)CC2)C1 (stereo not shown) [P-155, 3-(5-((5-(4-(5-acetyl-3-(7-(difluoromethyl)-6-(1-methyl-1H-pyrazol-4-yl)-3,4-dihydroquinolin-1(2H)-yl)-4,5,6,7-tetrahydro-1H-pyrazolo[4,3-c]pyridin-1-yl)piperidin-1-yl)-5-oxopentyl)amino)-4-oxobenzo[d][1,2,3]triazin-3(4H)-yl)piperidine-2,6-dione] |
| > 80% | 0.5 nM | – | – | CC(=O)N1CCc2c(c(N3CCCc4cc(-c5cnn(C)c5)c(C(F)F)cc43)nn2C2CCN(C(=O)CCCCCCNc3ccc4c(c3)n(C)c(=O)n4C3CCC(=O)NC3=O)CC2)C1 (stereo not shown) [P-130, 3-(5-((7-(4-(5-acetyl-3-(7-(difluoromethyl)-6-(1-methyl-1H-pyrazol-4-yl)-3,4-dihydroquinolin-1(2H)-yl)-4,5,6,7-tetrahydro-1H-pyrazolo[4,3-c]pyridin-1-yl)piperidin-1-yl)-7-oxoheptyl)amino)-3-methyl-2-oxo-2,3-dihydro-1H-benzo[d]imidazol-1-yl)piperidine-2,6-dione] |
